Experimental data: patent publication US20250313563A1, “GLYCOGEN SYNTHASE KINASE 3 INHIBITORS AND USES THEREOF” (The Broad Institute, Inc., priority 2022, published 2025)
Read-outs that look alike come from different tables or passages of the source.

Key:
[1] = target: GSK3b (GST-full length GSK3b) (Homo sapiens (Human), UniProt P49841); assay: GSK3b TR-FRET kinase assay; type: biochemical
Method in brief: (§1)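 1 nM GST-GSK3α/β + cpd, 30 min preinc; add 200 nM biotin-pS645 GS(631-650) peptide + ATP (α 4 μM / β 2 μM, or 1 mM); 100 min RT, 50 mM Tris pH 7.5, 20 mM MgCl2, 1% DMSO; EDTA stop; SA-d2/Tb-pSer641 Ab 60 min; 665/615 ratio → IC50.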

[2] = target: GSK3α (GST-full length GSK3α) (Homo sapiens (Human), UniProt P49840); assay: GSK3α TR-FRET kinase assay; type: biochemical
Sequence of GSK3α (GST-full length GSK3α) (P49840 whole entry): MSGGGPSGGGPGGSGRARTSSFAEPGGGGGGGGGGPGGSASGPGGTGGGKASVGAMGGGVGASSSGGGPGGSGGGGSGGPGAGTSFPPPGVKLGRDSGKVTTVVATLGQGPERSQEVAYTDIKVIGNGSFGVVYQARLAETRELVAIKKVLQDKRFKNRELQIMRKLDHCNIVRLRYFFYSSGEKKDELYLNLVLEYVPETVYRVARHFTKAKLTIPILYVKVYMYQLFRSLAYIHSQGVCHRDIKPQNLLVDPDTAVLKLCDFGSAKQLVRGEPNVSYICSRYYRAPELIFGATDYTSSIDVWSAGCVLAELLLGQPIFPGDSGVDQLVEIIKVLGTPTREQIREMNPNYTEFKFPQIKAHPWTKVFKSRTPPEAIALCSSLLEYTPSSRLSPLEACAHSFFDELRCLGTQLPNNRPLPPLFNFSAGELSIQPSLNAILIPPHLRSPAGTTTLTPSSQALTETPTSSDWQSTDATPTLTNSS
Method in brief: as §1

[3] = 1 nM GSK3b, 2 μM ATP, 30 minute preincubation, geometric mean, read-out: GSK3-B TR-FRET BIOCHEMICAL (TR-FRET), GMean, IC50
[4] = 1 nM GSK3α, 4 μM ATP, 30 minute preincubation, geometric mean, read-out: GSK3-A TR-FRET BIOCHEMICAL (TR-FRET), GMean, IC50
[5] = 1 nM GSK3b, 2 μM ATP, 30 minute preincubation, read-out: GSK3-B TR-FRET BIOCHEMICAL (TR-FRET), IC50
[6] = 1 nM GSK3α, 4 μM ATP, 30 minute preincubation, read-out: GSK3-A TR-FRET BIOCHEMICAL (TR-FRET), IC50
[7] = read-out: GSK3-B (TR-FRET 1 mM ATP), GMean, IC50, 1 mM ATP, geometric mean
[8] = read-out: GSK3-A (TR-FRET 1 mM ATP), GMean, IC50, 1 mM ATP, geometric mean
[9] = 1 nM GSK3b, 2 μM ATP, 30 minute preincubation, Table 16, read-out: GSK3-B TR-FRET BIOCHEMICAL (TR-FRET)
[10] = 1 nM GSK3α, 4 μM ATP, 30 minute preincubation, Table 16, read-out: GSK3-A TR-FRET BIOCHEMICAL (TR-FRET)

Sequence of GSK3b (GST-full length GSK3b) (P49841 whole entry): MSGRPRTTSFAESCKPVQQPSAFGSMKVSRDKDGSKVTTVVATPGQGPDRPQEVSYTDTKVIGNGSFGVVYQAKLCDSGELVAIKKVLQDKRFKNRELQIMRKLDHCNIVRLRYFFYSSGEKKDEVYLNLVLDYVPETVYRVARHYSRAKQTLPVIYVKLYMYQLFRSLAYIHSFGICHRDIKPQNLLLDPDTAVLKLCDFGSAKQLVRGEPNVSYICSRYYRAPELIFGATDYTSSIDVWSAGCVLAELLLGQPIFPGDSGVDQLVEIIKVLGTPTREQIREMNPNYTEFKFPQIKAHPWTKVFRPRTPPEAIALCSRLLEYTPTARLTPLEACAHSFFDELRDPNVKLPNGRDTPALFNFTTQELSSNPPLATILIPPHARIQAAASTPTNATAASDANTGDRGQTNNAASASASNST

Structure (SMILES) | IC50 [1, 3] | IC50 [2, 4] | further results
CCC1(c2cccc(-c3ccnc(C)c3)c2)C2=C(CC3(CCCOC3)NC2=O)Nc2n[nH]cc21 (stereo not shown) [Compound 948152] | 100 to 1000 nM | ≤ 100 nM | 
CCC1(c2cccc(-c3ccnc(C)c3)c2)C2=C(CC3(CCCOC3)NC2=O)Nc2n[nH]cc21 (stereo not shown) [Compound 948153] | > 5000 nM | > 5000 nM | 
CC1(C)CC(=O)C2=C(C1)Nc1n[nH]cc1[C@]21COC2(CN(C(=O)C(F)(F)F)C2)C1 [Compound 948156] |  |  | IC50 [1, 5]: 100 to 1000 nM; IC50 [2, 6]: ≤ 100 nM
CCC1(c2cccc(N(C)c3ncccn3)c2)C2=C(CC(C)(C)NC2=O)Nc2n[nH]c(C(F)(F)F)c21 (stereo not shown) [Compound 948176] | ≤ 100 nM | ≤ 100 nM | 
CCC1(c2cccc(S(=O)(=O)CC3CC3)c2)C2=C(CC(C)(C)NC2=O)Nc2n[nH]cc21 (stereo not shown) [Compound 948177] | 100 to 1000 nM | ≤ 100 nM | 
CCC1(c2cccc(S(=O)(=O)CC3CC3)c2)C2=C(CC(C)(C)NC2=O)Nc2n[nH]c(C(F)(F)F)c21 (stereo not shown) [Compound 948179] | ≤ 100 nM | ≤ 100 nM | 
CCC1(c2cccc(-c3cncn3C)c2)C2=C(CC(C)(C)NC2=O)Nc2n[nH]c(C(F)(F)F)c21 (stereo not shown) [Compound 948180] | ≤ 100 nM | ≤ 100 nM | 
CC[C@]1(c2cccc(-c3ccnc(C)c3C)c2)C2=C(CC(C)(C)NC2=O)Nc2n[nH]c(C(F)(F)F)c21 [Compound 948181] | 100 to 1000 nM | 100 to 1000 nM | 
CC[C@]1(c2cccc(-c3ccnc(C)c3C)c2)C2=C(CC(C)(C)NC2=O)Nc2n[nH]cc21 [Compound 948184] | 100 to 1000 nM | ≤ 100 nM | IC50 [1, 7]: 1000 to 5000 nM; IC50 [2, 8]: 100 to 1000 nM
CCC1(c2cccc(-c3ccnc(C)c3C)c2)C2=C(CC(C)(C)NC2=O)Nc2n[nH]c(C(F)(F)F)c21 (stereo not shown) [Compound 948185] | ≤ 100 nM | ≤ 100 nM | IC50 [1, 7]: ≤ 100 nM; IC50 [2, 8]: ≤ 100 nM
CCC1(c2cccc(-c3ccnc(C)c3C)c2)C2=C(CC(C)(C)NC2=O)Nc2n[nH]c(C)c21 (stereo not shown) [Compound 948187] | ≤ 100 nM | ≤ 100 nM | 
CCC1(c2cccc(C(F)(F)F)c2)C2=C(Nc3n[nH]cc31)c1ccccc1C2=O (stereo not shown) [Compound 948205] |  |  | IC50 ([1]; 1 nM GSK3b, 2 μM ATP, 30 minute preincubation, Table 16, read-out: GSK3-B TR-FRET BIOCHEMICAL (TR-FRET), IC50): ≤ 100 nM; IC50 ([1]; GSK3-B (TR-FRET 1 mM ATP), GMean, IC50, 1 mM ATP, geometric mean): 100 to 1000 nM; IC50 ([2]; 1 nM GSK3α, 4 μM ATP, 30 minute preincubation, Table 16, read-out: GSK3-A TR-FRET BIOCHEMICAL (TR-FRET), IC50): ≤ 100 nM; IC50 ([2]; GSK3-A (TR-FRET 1 mM ATP), GMean, IC50, 1 mM ATP, geometric mean): 100 to 1000 nM
Cc1cc(C)cc(C(=O)N2CC3(C2)CC2(CO3)C3=C(CC(C)(C)CC3=O)Nc3n[nH]cc32)c1 (stereo not shown) [Compound 948222] |  |  | IC50 [1, 5]: 1000 to 5000 nM; IC50 [2, 6]: 100 to 1000 nM
Cc1cc(C)cc(C(=O)N2CC3(C2)C[C@]2(CO3)C3=C(CC(C)(C)CC3=O)Nc3n[nH]cc32)c1 [Compound 948223] |  |  | IC50 [1, 5]: ≤ 100 nM; IC50 [1, 7]: 100 to 1000 nM; IC50 [2, 6]: ≤ 100 nM; IC50 [2, 8]: 100 to 1000 nM
CC[C@@]1(c2cccc(C(F)(F)F)c2)C2=C(CCN(c3ccc(F)cc3)C2=O)Nc2n[nH]cc21 [Compound 948224] | 100 to 1000 nM | ≤ 100 nM | 
CC[C@]1(c2cccc(C(F)(F)F)c2)C2=C(CCN(c3ccc(F)cc3)C2=O)Nc2n[nH]cc21 [Compound 948225] | > 5000 nM | 1000 to 5000 nM | 
CC[C@]1(c2cccc(C(F)(F)F)c2)C2=C(CCN(c3ccc(OC)cc3)C2=O)Nc2n[nH]cc21 [Compound 948227] | > 5000 nM | 1000 to 5000 nM | 
CCC1(c2cccc(C(F)(F)F)c2)C2=C(CCN(c3ccc(C)cc3)C2=O)Nc2n[nH]cc21 (stereo not shown) [Compound 948241] | 100 to 1000 nM | ≤ 100 nM | 
CCC1(c2cccc(-c3ccnc(C)c3F)c2)C2=C(CC(C)(C)NC2=O)Nc2n[nH]c(C(F)(F)F)c21 (stereo not shown) [Compound 948297] | ≤ 100 nM | ≤ 100 nM | 
CC1(C)CC(=O)C2=C(C1)Nc1n[nH]cc1C21CN(c2ccccc2)C1 [Compound 948298] |  |  | IC50 [1, 9]: ≤ 100 nM; IC50 [2, 10]: ≤ 100 nM
CCC1(c2cccc(-c3ccnc(C)c3)c2)C2=C(CC(C)(C)NC2=O)Nc2n[nH]c(F)c21 (stereo not shown) [Compound 948299] | 1000 to 5000 nM | ≤ 100 nM | 
CCC1(c2cccc(-c3cn(C)nc3C)c2)C2=C(CC(C)(C)NC2=O)Nc2n[nH]c(F)c21 (stereo not shown) [Compound 948301] | ≤ 100 nM | ≤ 100 nM | 
CCC1(c2cccc(-c3ccnc(C)c3)c2)C2=C(CC(C)(C)N(C)C2=O)Nc2n[nH]cc21 (stereo not shown) [Compound 948302] | 100 to 1000 nM | ≤ 100 nM | 

Structure (SMILES) | IC50 [1, 3] | IC50 [2, 4] | further results
CCC1(c2cccc(S(=O)(=O)C3CC3)c2)C2=C(CC(C)(C)N(C)C2=O)Nc2n[nH]cc21 (stereo not shown) [Compound 948303] | ≤ 100 nM | ≤ 100 nM | 
CCC1(c2cccc(-c3cn(C)nc3C)c2)C2=C(CC(C)(C)N(C)C2=O)Nc2n[nH]cc21 (stereo not shown) [Compound 948304] | ≤ 100 nM | ≤ 100 nM | 
CCC1(c2cccc(C(F)F)c2)C2=C(CC(C)(C)NC2=O)Nc2n[nH]c(C(F)(F)F)c21 (stereo not shown) [Compound 948305] | ≤ 100 nM | ≤ 100 nM | 
CC[C@]1(c2cccc(-c3ccnc(C)c3F)c2)C2=C(CC(C)(C)NC2=O)Nc2n[nH]cc21 [Compound 948306] | 100 to 1000 nM | ≤ 100 nM | 
CC[C@]1(c2cccc(-c3cn[nH]c3)c2)C2=C(CC(C)(C)NC2=O)Nc2n[nH]c(C(F)(F)F)c21 [Compound 948307] | ≤ 100 nM | ≤ 100 nM | IC50 [1, 7]: ≤ 100 nM; IC50 [2, 8]: ≤ 100 nM
CCC1(c2cccc(-c3ccnc4c3CCC4)c2)C2=C(CC(C)(C)NC2=O)Nc2n[nH]cc21 (stereo not shown) [Compound 948308] | > 5000 nM | > 5000 nM | 
CC[C@@]1(c2cccc(-c3cn[nH]c3)c2)C2=C(CC(C)(C)NC2=O)Nc2n[nH]c(C(F)(F)F)c21 [Compound 948312] | 100 to 1000 nM | ≤ 100 nM | 
CC[C@@]1(c2cccc(-c3ccnc4c3CCC4)c2)C2=C(CC(C)(C)NC2=O)Nc2n[nH]cc21 [Compound 948313] | ≤ 100 nM | ≤ 100 nM | IC50 [1, 7]: 1000 to 5000 nM; IC50 [2, 8]: 100 to 1000 nM
CCC1(c2cccc(-c3cn(C)nc3C)c2)C2=C(CC(C)(C)NC2=O)Nc2n[nH]c(C(F)(F)F)c21 (stereo not shown) [Compound 948314] | ≤ 100 nM | ≤ 100 nM | IC50 [1, 7]: ≤ 100 nM; IC50 [2, 8]: ≤ 100 nM
CC(=O)N1CC[C@]2(C1)C[C@]1(CO2)C2=C(CC(C)(C)CC2=O)Nc2n[nH]cc21 [Compound 948319] |  |  | IC50 [1, 5]: 100 to 1000 nM; IC50 [2, 6]: ≤ 100 nM
CC(=O)N1CC[C@@]2(C1)C[C@]1(CO2)C2=C(CC(C)(C)CC2=O)Nc2n[nH]cc21 [Compound 948320] |  |  | IC50 [1, 5]: 1000 to 5000 nM; IC50 [2, 6]: 100 to 1000 nM
CCc1cc(-c2cccc([C@]3(CC)C4=C(CC(C)(C)NC4=O)Nc4n[nH]cc43)c2)ccn1 [Compound 948360] | > 5000 nM | 1000 to 5000 nM | 
CC[C@@]1(c2cccc(-c3ccnc4cc(Cl)ccc34)c2)C2=C(CC(C)(C)NC2=O)Nc2n[nH]cc21 [Compound 948362] | > 5000 nM | > 5000 nM | 
CCC1(c2cccc(-c3ccnn3C)c2)C2=C(CC3(CCCOC3)NC2=O)Nc2n[nH]cc21 (stereo not shown) [Compound 948366] | > 5000 nM | 1000 to 5000 nM | 
CCC1(c2cccc(-c3ccncc3C)c2)C2=C(CC3(CCOCC3)NC2=O)Nc2n[nH]cc21 (stereo not shown) [Compound 948367] | > 5000 nM | 100 to 1000 nM | 
CC[C@@]1(c2cccc(-c3ccnc(C)c3Cl)c2)C2=C(CC(C)(C)NC2=O)Nc2n[nH]cc21 [Compound 948369] | > 5000 nM | > 5000 nM | 
CC[C@]1(c2cccc(-c3c(F)cncc3Cl)c2)C2=C(CC(C)(C)NC2=O)Nc2n[nH]cc21 [Compound 948371] | ≤ 100 nM | ≤ 100 nM | IC50 [1, 7]: 100 to 1000 nM; IC50 [2, 8]: 100 to 1000 nM
CCC1(c2cccc(C(F)(F)F)c2)C2=C(CCN(c3cncnc3)C2=O)Nc2n[nH]cc21 (stereo not shown) [Compound 948379] | 100 to 1000 nM | ≤ 100 nM | IC50 [1, 7]: > 5000 nM; IC50 [2, 8]: 100 to 1000 nM
CCC1(c2cccc(C(F)(F)F)c2)C2=C(CCN(c3cncnc3)C2=O)Nc2n[nH]cc21 (stereo not shown) [Compound 948380] | > 5000 nM | 100 to 1000 nM | 
CCC1(c2cccc(-c3ccnc(C)c3)c2)C2=C(CC(C)(C)NC2=O)Nc2n[nH]c(C)c21 (stereo not shown) [Compound 948414] | > 5000 nM | > 5000 nM | 
Cc1cc([C@H]2CC[C@@]3(CC2)C2=C(CC(C)(C)CC2=O)Nc2n[nH]cc23)ccn1 [Compound 948415] |  |  | IC50 [1, 9]: ≤ 100 nM; IC50 [2, 10]: ≤ 100 nM
Cc1cc([C@H]2CC[C@]3(CC2)C2=C(CC(C)(C)CC2=O)Nc2n[nH]cc23)ccn1 [Compound 948416] |  |  | IC50 [1, 9]: 100 to 1000 nM; IC50 [2, 10]: ≤ 100 nM
CC[C@]1(c2cccc(S(=O)(=O)C(C)C)c2)C2=C(CC(C)(C)NC2=O)Nc2n[nH]c(C(F)(F)F)c21 [Compound 948419] | ≤ 100 nM | ≤ 100 nM | IC50 [1, 7]: ≤ 100 nM; IC50 [2, 8]: ≤ 100 nM
